Test results published in patent publication US10131652B2, “Pyrimidinyloxy benzene derivatives as herbicides” (E. I. DU PONT DE NEMOURS AND COMPANY, priority 2014, dated 2018).

What was measured:
Assay type in all cases: in vivo
rice (Oryza sativa) = test: Test C flooded paddy test plant response; details: Flood, 250 g ai/ha; scale of 0 to 100 where 0 is no effect and 100 is complete control; 13 to 15 days
In short: (§1)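 Water-applied treatment: compounds go directly into floodwater standing 3 cm over the soil of pots holding 2-leaf-stage plants. Depth is kept constant; plants stay in a greenhouse 13 to 15 days before visual comparison with controls on a 0–100 scale.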

[1] = system: barnyardgrass (Echinochloa crus-galli); test: Test C flooded paddy test plant response; details: Flood, 250 g ai/ha; scale of 0 to 100 where 0 is no effect and 100 is complete control; 13 to 15 days
In short: as §1

[2] = system: ducksalad (Heteranthera limosa); test: Test C flooded paddy test plant response; details: Flood, 250 g ai/ha; scale of 0 to 100 where 0 is no effect and 100 is complete control; 13 to 15 days
In short: as §1

[3] = system: small-flower umbrella sedge (Cyperus difformis); test: Test C flooded paddy test plant response; details: Flood, 250 g ai/ha; scale of 0 to 100 where 0 is no effect and 100 is complete control; 13 to 15 days
In short: as §1

[4] = system: velvetleaf (Abutilon theophrasti); test: Test B pre-/postemergence plant response
In short: (§2)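 Scoring used a 0–100 scale (100 = complete control) by visual comparison with untreated plants after approximately 10 days in the greenhouse. Compounds, in surfactant-containing non-phytotoxic solvent, were sprayed onto soil at planting or onto 2–10 cm seedlings.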

[5] = system: wheat (Triticum aestivum); test: Test B pre-/postemergence plant response
In short: as §2

[6] = system: large (Lg) crabgrass (Digitaria sanguinalis); test: Test B pre-/postemergence plant response
In short: as §2

[7] = system: morningglory (Ipomoea spp.); test: Test B pre-/postemergence plant response
In short: as §2

[8] = system: giant foxtail (Setaria faberii); test: Test B pre-/postemergence plant response
In short: as §2

[9] = system: barnyardgrass (Echinochloa crus-galli); test: Test B pre-/postemergence plant response
In short: as §2

[10] = system: pigweed (Amaranthus retroflexus); test: Test B pre-/postemergence plant response
In short: as §2

corn (Zea mays) = test: Test B pre-/postemergence plant response
In short: as §2

[11] = 125 g ai/ha, postemergence, 0 to 100 scale, 0 no effect, 100 complete control
[12] = 500 g ai/ha, postemergence, 0 to 100 scale, 0 no effect, 100 complete control
[13] = Preemergence, 125 g ai/ha, 0 to 100 scale (0 no effect, 100 complete control)
[14] = Preemergence, 500 g ai/ha, 0 to 100 scale where 0 is no effect and 100 is complete control
[15] = Postemergence, 500 g ai/ha, 0 to 100 scale (0 no effect, 100 complete control)
[16] = Preemergence, 125 g ai/ha, 0 to 100 scale where 0 is no effect and 100 is complete control

SMILES	Rice plant response rating (rice (Oryza sativa))	Barnyardgrass plant response rating [1]	Ducksalad plant response rating [2]	Sedge, Umbrella plant response rating [3]	Plant response rating, Velvetleaf [4, 11]	Plant response rating, Velvetleaf [4, 14]	Plant response rating, Wheat [5, 11]	Plant response rating, Wheat [5, 14]	Plant response rating, Crabgrass, Large [6, 11]	Plant response rating, Crabgrass, Large [6, 14]	Plant response rating, Morningglory [7, 11]	Plant response rating, Morningglory [7, 14]	Plant response rating, Foxtail, Giant [8, 11]	Plant response rating, Foxtail, Giant [8, 14]	Plant response rating, Barnyardgrass [9, 11]	Plant response rating, Barnyardgrass [9, 14]	Plant response rating, Pigweed [10, 11]	Plant response rating, Pigweed [10, 14]	Plant response rating, Corn (corn (Zea mays); [11])	Plant response rating, Corn (corn (Zea mays); [14])	other results
Clc1ccc(-c2c(I)cccc2Oc2ncc(Cl)cn2)nc1 [Compound 205]	0	0	0	0	0	0	0	0	10	70	0	0	0	70	0	10	60	90	0	0	Plant response rating, Velvetleaf [4, 12]: 10; Velvetleaf plant response rating [4, 13]: 0; Plant response rating, Wheat [5, 12]: 0; Wheat plant response rating [5, 13]: 0; Plant response rating, Crabgrass, Large [6, 12]: 20; Crabgrass, Large plant response rating [6, 13]: 30; Plant response rating, Morningglory [7, 12]: 10; Morningglory plant response rating [7, 13]: 0; Plant response rating, Foxtail, Giant [8, 12]: 20; Foxtail, Giant plant response rating [8, 13]: 20; Plant response rating, Barnyardgrass [9, 12]: 10; Barnyardgrass plant response rating [9, 13]: 0; Plant response rating, Pigweed [10, 12]: 90; Pigweed plant response rating [10, 13]: 10; Plant response rating, Corn (corn (Zea mays); [12]): 10; Corn plant response rating (corn (Zea mays); [13]): 0
Cn1nc(C(F)(F)F)cc1-c1ccccc1Oc1ncc(Br)cn1 [Compound 30]	0	0	0	0	10	0	0	0	0	20	0	0	0	10	0	0	0	30	0	0	Plant response rating, Velvetleaf [4, 15]: 30; Plant response rating, Velvetleaf [4, 16]: 0; Plant response rating, Wheat [5, 15]: 0; Plant response rating, Wheat [5, 16]: 0; Plant response rating, Crabgrass, Large [6, 15]: 10; Plant response rating, Crabgrass, Large [6, 16]: 0; Plant response rating, Morningglory [7, 15]: 10; Plant response rating, Morningglory [7, 16]: 0; Plant response rating, Foxtail, Giant [8, 15]: 10; Plant response rating, Foxtail, Giant [8, 16]: 0; Plant response rating, Barnyardgrass [9, 15]: 0; Plant response rating, Barnyardgrass [9, 16]: 0; Plant response rating, Pigweed [10, 15]: 10; Plant response rating, Pigweed [10, 16]: 0; Plant response rating, Corn (corn (Zea mays); [15]): 0; Plant response rating, Corn (corn (Zea mays); [16]): 0
N#Cc1cccc(-n2cc(Br)cn2)c1Oc1ncc(Cl)cn1 [Compound 209]	0	0	0	0	30	0	0	0	10	100	30	0	0	100	0	10	90	100	0	0	Plant response rating, Velvetleaf [4, 12]: 30; Velvetleaf plant response rating [4, 13]: 0; Plant response rating, Wheat [5, 12]: 0; Wheat plant response rating [5, 13]: 0; Plant response rating, Crabgrass, Large [6, 12]: 30; Crabgrass, Large plant response rating [6, 13]: 70; Plant response rating, Morningglory [7, 12]: 30; Morningglory plant response rating [7, 13]: 0; Plant response rating, Foxtail, Giant [8, 12]: 30; Foxtail, Giant plant response rating [8, 13]: 30; Plant response rating, Barnyardgrass [9, 12]: 0; Barnyardgrass plant response rating [9, 13]: 0; Plant response rating, Pigweed [10, 12]: 100; Pigweed plant response rating [10, 13]: 90; Plant response rating, Corn (corn (Zea mays); [12]): 0; Corn plant response rating (corn (Zea mays); [13]): 0
Clc1ccc(-c2c(Br)cccc2Oc2ncc(Cl)cn2)nc1 [Compound 135]	0	0	0	0	40	60	0	0	10	100	20	10	10	100	10	60	100	100	10	0	Plant response rating, Velvetleaf [4, 15]: 80; Velvetleaf plant response rating [4, 13]: 20; Plant response rating, Wheat [5, 15]: 10; Wheat plant response rating [5, 13]: 0; Plant response rating, Crabgrass, Large [6, 15]: 50; Crabgrass, Large plant response rating [6, 13]: 80; Plant response rating, Morningglory [7, 15]: 50; Morningglory plant response rating [7, 13]: 0; Plant response rating, Foxtail, Giant [8, 15]: 60; Foxtail, Giant plant response rating [8, 13]: 60; Plant response rating, Barnyardgrass [9, 15]: 40; Barnyardgrass plant response rating [9, 13]: 10; Plant response rating, Pigweed [10, 15]: 100; Pigweed plant response rating [10, 13]: 90; Plant response rating, Corn (corn (Zea mays); [15]): 30; Corn plant response rating (corn (Zea mays); [13]): 0
Cn1nc(C(F)(F)F)cc1-c1ccccc1Oc1ncc(Cl)cn1 [Compound 29]	0	0	0	0	0	0	0	0	0	30	0	0	0	10	0	0	0	50	0	0	Plant response rating, Velvetleaf [4, 15]: 0; Plant response rating, Velvetleaf [4, 16]: 0; Plant response rating, Wheat [5, 15]: 0; Plant response rating, Wheat [5, 16]: 0; Plant response rating, Crabgrass, Large [6, 15]: 10; Plant response rating, Crabgrass, Large [6, 16]: 10; Plant response rating, Morningglory [7, 15]: 0; Plant response rating, Morningglory [7, 16]: 0; Plant response rating, Foxtail, Giant [8, 15]: 0; Plant response rating, Foxtail, Giant [8, 16]: 0; Plant response rating, Barnyardgrass [9, 15]: 0; Plant response rating, Barnyardgrass [9, 16]: 0; Plant response rating, Pigweed [10, 15]: 10; Plant response rating, Pigweed [10, 16]: 20; Plant response rating, Corn (corn (Zea mays); [15]): 0; Plant response rating, Corn (corn (Zea mays); [16]): 0
